Species: Rattus norvegicus
Test: DrugMatrix - Regimen: Daily Repeat
Format: toxicity, organism-based, Sprague-Dawley
Set-up: regimen Daily Repeat, gender Male, age 6-8 weeks
Settings: in vivo; for ALANINE AMINOTRANSFERASE / ALKALINE PHOSPHATASE / ASPARTATE AMINOTRANSFERASE / BLOOD UREA NITROGEN / CARBON DIOXIDE / CHLORIDE / CHOLESTEROL / CREATINE PHOSPHOKINASE / CREATININE / GLUCOSE / LACTATE DEHYDROGENASE / PHOSPHORUS / POTASSIUM / TOTAL BILIRUBIN / TOTAL PROTEIN / URIC ACID / ALBUMIN / SODIUM / LIPASE: tissue Plasma
[1] = po, 0 mg/kg, 72 h, tissue Blood, route oral GAVAGE, dose level Control, time 3 day, vehicle .5 % CMC
[2] = po, 0 mg/kg, 72 h, route oral GAVAGE, dose level Control, time 3 day, vehicle .5 % CMC
[3] = po, 33 mg/kg, 72 h, tissue Blood, route oral GAVAGE, dose level High, time 3 day, vehicle .5 % CMC
[4] = po, 33 mg/kg, 72 h, route oral GAVAGE, dose level High, time 3 day, vehicle .5 % CMC
[5] = po, […], 72 h, tissue Blood, route oral GAVAGE, dose 3.3 mg/Kg, dose level Low, time 3 day, vehicle .5 % CMC
[6] = po, […], 72 h, route oral GAVAGE, dose 3.3 mg/Kg, dose level Low, time 3 day, vehicle .5 % CMC
[7] = iv, 55 mg/kg, 72 h, tissue Blood, dose level Low, time 3 day, vehicle 100 % SALINE
[8] = iv, 55 mg/kg, 72 h, dose level Low, time 3 day, vehicle 100 % SALINE
[9] = iv, 55 mg/kg, 120 h, tissue Blood, dose level Low, time 5 day, vehicle 100 % SALINE
[10] = iv, 55 mg/kg, 120 h, dose level Low, time 5 day, vehicle 100 % SALINE

## AURANOFIN
[1]
  ABSOLUTE BASOPHIL: 0 CELLS/uL
  ABSOLUTE EOSINOPHIL: 8.83 CELLS/uL
  ABSOLUTE LYMPHOCYTE: 7222.33 CELLS/uL
  ABSOLUTE MONOCYTE: 0 CELLS/uL
  ABSOLUTE SEGMENTED NEUTROPHIL: 752.17 CELLS/uL
  BASOPHIL: 0%
  EOSINOPHIL: 0.17%
  ERYTHROCYTE COUNT: 5.22 x10E6/uL
  HEMATOCRIT: 32.6%
  HEMOGLOBIN: 12.43 G/DL
  LEUKOCYTE COUNT: 7.98 x10E3/uL
  LYMPHOCYTE: 91.17%
  MEAN CORPUSCULAR HEMOGLOBIN: 23.87 pg
  MEAN CORPUSCULAR HEMOGLOBIN CONCENTRATION: 38.18 G/DL
  MONOCYTE: 0%
  NUCLEATED RED BLOOD CELLS: 0 /100WBC
  PLATELET COUNT: 1082.33 x10E3/uL
[2]
  ALANINE AMINOTRANSFERASE: 42.17 u/L
  ALKALINE PHOSPHATASE: 451.17 u/L
  ASPARTATE AMINOTRANSFERASE: 76.17 u/L
  BLOOD UREA NITROGEN: 13.33 mg/dL
  CARBON DIOXIDE: 31.67 mmol/L
  CHLORIDE: 96.5 MEQ/L
  CHOLESTEROL: 78 mg/dL
  CREATINE PHOSPHOKINASE: 216.5 u/L
  CREATININE: 0.22 mg/dL
  GLUCOSE: 137 mg/dL
  LACTATE DEHYDROGENASE: 138.5 u/L
  PHOSPHORUS: 12.68 mg/dL
  POTASSIUM: 6.23 MEQ/L
  TOTAL BILIRUBIN: 0.15 mg/dL
  TOTAL PROTEIN: 6.33 G/DL
  URIC ACID: 1.1 mg/dL
[3]
  ABSOLUTE BASOPHIL: 0 CELLS/uL
  ABSOLUTE EOSINOPHIL: 19 CELLS/uL
  ABSOLUTE LYMPHOCYTE: 6925.33 CELLS/uL
  ABSOLUTE MONOCYTE: 0 CELLS/uL
  ABSOLUTE SEGMENTED NEUTROPHIL: 722.33 CELLS/uL
  BASOPHIL: 0%
  EOSINOPHIL: 0.33%
  ERYTHROCYTE COUNT: 5.07 x10E6/uL
  HEMATOCRIT: 31.53%
  HEMOGLOBIN: 12.07 G/DL
  LEUKOCYTE COUNT: 7.67 x10E3/uL
  LYMPHOCYTE: 90.67%
  MEAN CORPUSCULAR HEMOGLOBIN: 23.77 pg
  MEAN CORPUSCULAR HEMOGLOBIN CONCENTRATION: 38.27 G/DL
  MONOCYTE: 0%
  NEUTROPHIL: 9%
  NUCLEATED RED BLOOD CELLS: 0 /100WBC
  PLATELET COUNT: 1030 x10E3/uL
[4]
  ALANINE AMINOTRANSFERASE: 55.67 u/L
  ALBUMIN: 3.8 G/DL
  ALKALINE PHOSPHATASE: 342.67 u/L
  ASPARTATE AMINOTRANSFERASE: 80.33 u/L
  BLOOD UREA NITROGEN: 13.33 mg/dL
  CARBON DIOXIDE: 31.67 mmol/L
  CHOLESTEROL: 93.33 mg/dL
  CREATINE PHOSPHOKINASE: 251.67 u/L
  CREATININE: 0.18 mg/dL
  GLUCOSE: 139 mg/dL
  LACTATE DEHYDROGENASE: 122 u/L
  SODIUM: 153.7 MEQ/L
  TOTAL BILIRUBIN: 0.2 mg/dL
  TOTAL PROTEIN: 5.87 G/DL
  URIC ACID: 1.13 mg/dL
[5]
  ABSOLUTE BASOPHIL: 0 CELLS/uL
  ABSOLUTE EOSINOPHIL: 46.33 CELLS/uL
  ABSOLUTE LYMPHOCYTE: 6434 CELLS/uL
  ABSOLUTE MONOCYTE: 30 CELLS/uL
  ABSOLUTE SEGMENTED NEUTROPHIL: 1123 CELLS/uL
  BASOPHIL: 0%
  EOSINOPHIL: 0.67%
  ERYTHROCYTE COUNT: 5.02 x10E6/uL
  HEMATOCRIT: 31.27%
  HEMOGLOBIN: 11.83 G/DL
  LEUKOCYTE COUNT: 7.63 x10E3/uL
  LYMPHOCYTE: 84.33%
  MEAN CORPUSCULAR HEMOGLOBIN: 23.57 pg
  MEAN CORPUSCULAR HEMOGLOBIN CONCENTRATION: 37.83 G/DL
  MONOCYTE: 0.33%
  NEUTROPHIL: 14.67%
  NUCLEATED RED BLOOD CELLS: 0.33 /100WBC
  PLATELET COUNT: 1052.33 x10E3/uL
[6]
  ALANINE AMINOTRANSFERASE: 42.33 u/L
  ALBUMIN: 4.1 G/DL
  ALKALINE PHOSPHATASE: 371 u/L
  ASPARTATE AMINOTRANSFERASE: 73 u/L
  BLOOD UREA NITROGEN: 13 mg/dL
  CARBON DIOXIDE: 33 mmol/L
  CHLORIDE: 97 MEQ/L
  CHOLESTEROL: 76.67 mg/dL
  CREATINE PHOSPHOKINASE: 140 u/L
  CREATININE: 0.18 mg/dL
  GLUCOSE: 143 mg/dL
  LACTATE DEHYDROGENASE: 96 u/L
  LIPASE: 8.33 u/L
  POTASSIUM: 6.12 MEQ/L
  SODIUM: 145.6 MEQ/L
  TOTAL BILIRUBIN: 0.17 mg/dL
  TOTAL PROTEIN: 6.17 G/DL
  URIC ACID: 1 mg/dL

## GADOPENTETATE DIMEGLUMINE
[7]
  ABSOLUTE BASOPHIL: 0 CELLS/uL
  ABSOLUTE EOSINOPHIL: 43.67 CELLS/uL
  ABSOLUTE LYMPHOCYTE: 9839.33 CELLS/uL
  ABSOLUTE MONOCYTE: 219.67 CELLS/uL
  ABSOLUTE SEGMENTED NEUTROPHIL: 564 CELLS/uL
  BASOPHIL: 0%
  EOSINOPHIL: 0.33%
  ERYTHROCYTE COUNT: 5.53 x10E6/uL
  HEMOGLOBIN: 13.6 G/DL
  LEUKOCYTE COUNT: 10.67 x10E3/uL
  LYMPHOCYTE: 92.67%
  MEAN CORPUSCULAR HEMOGLOBIN: 24.63 pg
  MEAN CORPUSCULAR HEMOGLOBIN CONCENTRATION: 37.3 G/DL
  MEAN CORPUSCULAR VOLUME: 66.07 fL
  MONOCYTE: 2%
  NEUTROPHIL: 5%
  NUCLEATED RED BLOOD CELLS: 0 /100WBC
  PLATELET COUNT: 1301 x10E3/uL
[8]
  ALANINE AMINOTRANSFERASE: 40 u/L
  ALKALINE PHOSPHATASE: 398.33 u/L
  ASPARTATE AMINOTRANSFERASE: 87.67 u/L
  CARBON DIOXIDE: 23.33 mmol/L
  CHOLESTEROL: 81.33 mg/dL
  CREATINE PHOSPHOKINASE: 415.67 u/L
  CREATININE: 0.21 mg/dL
  LACTATE DEHYDROGENASE: 589.67 u/L
  POTASSIUM: 6.91 MEQ/L
  SODIUM: 145.83 MEQ/L
  TOTAL BILIRUBIN: 0.2 mg/dL
  TOTAL PROTEIN: 6.1 G/DL
[9]
  ABSOLUTE BASOPHIL: 0 CELLS/uL
  ABSOLUTE EOSINOPHIL: 278.33 CELLS/uL
  ABSOLUTE LYMPHOCYTE: 15424.33 CELLS/uL
  ABSOLUTE MONOCYTE: 421.67 CELLS/uL
  ABSOLUTE SEGMENTED NEUTROPHIL: 1375.67 CELLS/uL
  BASOPHIL: 0%
  ERYTHROCYTE COUNT: 5.85 x10E6/uL
  HEMATOCRIT: 36.97%
  HEMOGLOBIN: 14.03 G/DL
  LEUKOCYTE COUNT: 17.5 x10E3/uL
  LYMPHOCYTE: 88%
  MEAN CORPUSCULAR HEMOGLOBIN: 24.07 pg
  MEAN CORPUSCULAR HEMOGLOBIN CONCENTRATION: 37.97 G/DL
  NEUTROPHIL: 8%
  NUCLEATED RED BLOOD CELLS: 0 /100WBC
  PLATELET COUNT: 1344.67 x10E3/uL
[10]
  ALANINE AMINOTRANSFERASE: 53.33 u/L
  ALBUMIN: 4.2 G/DL
  ALKALINE PHOSPHATASE: 358.67 u/L
  ASPARTATE AMINOTRANSFERASE: 83 u/L
  BLOOD UREA NITROGEN: 16.67 mg/dL
  CARBON DIOXIDE: 26.33 mmol/L
  CHLORIDE: 106.67 MEQ/L
  CHOLESTEROL: 68 mg/dL
  CREATINE PHOSPHOKINASE: 219.67 u/L
  CREATININE: 0.19 mg/dL
  GLUCOSE: 172 mg/dL
  LACTATE DEHYDROGENASE: 98 u/L
  LIPASE: 10 u/L
  PHOSPHORUS: 12.93 mg/dL
  POTASSIUM: 6.64 MEQ/L
  SODIUM: 146.2 MEQ/L
  TOTAL BILIRUBIN: 0.2 mg/dL
  TOTAL PROTEIN: 6.13 G/DL
  URIC ACID: 2.37 mg/dL

— ChEMBL document CHEMBL3885881, “DrugMatrix”
